# Experiments:
# [1] = target: human D2-long dopamine receptor (Homo sapiens (Human), UniProt P14416); assay: Radioligand binding (125I-IABN competition), D2; conditions: HEK cell membranes expressing human D2-long
# Experimental: (§1) The affinities of the target compounds were determined using radioligand binding experiments. […] Competition curves were modeled for a single site. Data from competition dose-response curves were analyzed using Tablecurve program (Jandel). IC50 values were converted to equilibrium dissociation constants (Ki values) using the Cheng and Prusoff correction.
# [2] = target: human D3 dopamine receptor (Homo sapiens (Human), UniProt P35462); assay: Radioligand binding (125I-IABN competition), D3; conditions: for Ki: 125I-IABN competition, HEK cell membranes expressing human D3; for D2/D3 (D3 selectivity ratio, D2 Ki/D3 Ki): calculated D2 Ki/D3 Ki
# Sequence of human D3 dopamine receptor (P35462 whole entry): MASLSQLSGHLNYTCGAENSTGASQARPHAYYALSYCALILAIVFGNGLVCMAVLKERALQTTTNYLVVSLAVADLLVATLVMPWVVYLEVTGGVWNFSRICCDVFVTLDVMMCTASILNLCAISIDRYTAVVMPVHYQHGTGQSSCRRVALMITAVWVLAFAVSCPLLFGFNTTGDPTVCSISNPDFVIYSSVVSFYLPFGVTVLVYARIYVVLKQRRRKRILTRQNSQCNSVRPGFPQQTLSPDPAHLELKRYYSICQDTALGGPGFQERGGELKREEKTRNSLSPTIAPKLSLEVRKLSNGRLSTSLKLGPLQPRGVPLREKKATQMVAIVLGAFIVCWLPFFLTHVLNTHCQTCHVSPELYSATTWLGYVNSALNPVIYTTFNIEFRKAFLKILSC
# Experimental: as §1
# Sequence of human D2-long dopamine receptor (P14416 whole entry): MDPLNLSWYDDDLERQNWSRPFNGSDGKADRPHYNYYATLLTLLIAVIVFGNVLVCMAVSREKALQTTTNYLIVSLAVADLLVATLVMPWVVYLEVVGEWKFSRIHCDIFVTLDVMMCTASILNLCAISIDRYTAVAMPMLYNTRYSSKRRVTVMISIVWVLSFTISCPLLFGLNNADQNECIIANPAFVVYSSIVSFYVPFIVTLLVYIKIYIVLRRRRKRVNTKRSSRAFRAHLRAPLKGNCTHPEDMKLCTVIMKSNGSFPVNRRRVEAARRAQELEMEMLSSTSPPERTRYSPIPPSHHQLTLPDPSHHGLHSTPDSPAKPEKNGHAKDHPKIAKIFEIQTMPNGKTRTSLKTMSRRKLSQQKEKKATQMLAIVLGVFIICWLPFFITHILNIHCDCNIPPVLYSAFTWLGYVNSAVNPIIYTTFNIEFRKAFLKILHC
Ki [1] [nM],Ki [2] [nM],"D2/D3 (D3 selectivity ratio, D2 Ki/D3 Ki) [2]",Structure (SMILES)
1020 ± 68.2,34.5 ± 7.6,29,"O=C(NCCCCN1CCN(c2ccnc3cc(Cl)ccc23)CC1)C1CCC(c2ccccc2)CC1 (stereo not drawn) [Compound 105, N-(4-(4-(7-Chloroquinolin-4-yl)piperazin-1-yl)butyl)-4-phenylcyclohexanecarboxamide]"
125 ± 25.3,9.6 ± 2.2,13,"CC(C)N1CCN(C(=O)NCCCCN2CCN(c3cc(C(F)(F)F)nc(C(C)(C)C)n3)CC2)CC1 [Compound 66, N-(4-(4-(2-(tert-Butyl)-6-(trifluoromethyl)pyrimidin-4-yl)piperazin-1-yl)butyl)-4-isopropylpiperazine-1-carboxamide]"
125 ± 26.6,18 ± 3,7,"CN1CCC(N2CCN(C(=O)NCCCCN3CCN(c4cc(C(F)(F)F)nc(C(C)(C)C)n4)CC3)CC2)CC1 [Compound 76, N-(4-(4-(2-(tert-Butyl)-6-(trifluoromethyl)pyrimidin-4-yl)piperazin-1-yl)butyl)-4-(1-methylpiperidin-4-yl)piperazine-1-carboxamide]"
331 ± 51.9,12.8 ± 2.3,26,"CC(C)(C)c1nc(N2CCN(CCCCNC(=O)N3CCN(C4CC4)CC3)CC2)cc(C(F)(F)F)n1 [Compound 35, N-(4-(4-(2-(tert-Butyl)-6-(trifluoromethyl)pyrimidin-4-yl)piperazin-1-yl)butyl)-4-cyclopropylpiperazine-1-carboxamide]"
3560 ± 1950,323 ± 75,11,"O=C(NCCCCN1CCN(c2ccnc3ccccc23)CC1)c1nc2ccccn2c1Cl [Compound 129, 3-Chloro-N-(4-(4-(quinolin-4-yl)piperazin-1-yl)butyl)imidazo[1,2-a]pyridine-2-carboxamide]"
342 ± 22,19.4 ± 4.1,18,"CC(C)(C)c1nc(N2CCN(CCCCNC(=O)N3CCN(c4ccc(C#N)cc4)CC3)CC2)cc(C(F)(F)F)n1 [Compound 59, N-(4-(4-(2-(tert-Butyl)-6-(trifluoromethyl)pyrimidin-4-yl)piperazin-1-yl)butyl)-4-(4-cyanophenyl)piperazine-1-carboxamide]"
981 ± 73.9,138 ± 28.8,7,"CC(C)(C)c1nc(N2CCN(CCCCNC(=O)N3CCN(S(=O)(=O)c4ccccc4)CC3)CC2)cc(C(F)(F)F)n1 [Compound 77, N-(4-(4-(2-(tert-Butyl)-6-(trifluoromethyl)pyrimidin-4-yl)piperazin-1-yl)butyl)-4-(phenylsulfonyl)piperazine-1-carboxamide]"
603 ± 104,18.4 ± 2.6,33,"CC(C)(C)c1nc(N2CCN(CCCCNC(=O)N3CCC(Cc4ccccc4)CC3)CC2)cc(C(F)(F)F)n1 [Compound 50, 4-Benzyl-N-(4-(4-(2-(tert-butyl)-6-(trifluoromethyl)pyrimidin-4-yl)piperazin-1-yl)butyl)piperidine-1-carboxamide]"
820 ± 178,84.2 ± 20.3,10,"CC(C)(C)c1nc(N2CCN(CCCCNC(=O)N3CCN(Cc4cccc(C#N)c4)CC3)CC2)cc(C(F)(F)F)n1 [Compound 72, N-(4-(4-(2-(tert-Butyl)-6-(trifluoromethyl)pyrimidin-4-yl)piperazin-1-yl)butyl)-4-(3-cyanobenzyl)piperazine-1-carboxamide]"
215 ± 36.3,33.5 ± 8,6,"CC(C)(C)c1nc(N2CCN(CCCCNC(=O)N3CCCc4ccccc43)CC2)cc(C(F)(F)F)n1 [Compound 70, N-(4-(4-(2-(tert-Butyl)-6-(trifluoromethyl)pyrimidin-4-yl)piperazin-1-yl)butyl)-3,4-dihydroquinoline-1(2H)-carboxamide]"
1050 ± 95.7,29.6 ± 3.2,35,"CC(C)(C)c1nc(N2CCN(CCCCNC(=O)N3CCN(c4cccc(C(F)(F)F)c4)CC3)CC2)cc(C(F)(F)F)n1 [Compound 27, N-(4-(4-(2-(tert-Butyl)-6-(trifluoromethyl)pyrimidin-4-yl)piperazin-1-yl)butyl)-4-(3-(trifluoromethyl)phenyl)piperazine-1-carboxamide]"

# More lines, now with the values behind:
Structure (SMILES),Ki [1] [nM],Ki [2] [nM],"D2/D3 (D3 selectivity ratio, D2 Ki/D3 Ki) [2]"
"CC(C)(C)c1nc(N2CCN(CCCCNC(=O)N3CCN(c4ccc(Cl)c(Cl)c4)CC3)CC2)cc(C(F)(F)F)n1 [Compound 60, N-(4-(4-(2-(tert-Butyl)-6-(trifluoromethyl)pyrimidin-4-yl)piperazin-1-yl)butyl)-4-(3,4-dichlorophenyl)piperazine-1-carboxamide]",570 ± 119,46.6 ± 9.1,12
"CC(C)(C)c1cc(N2CCN(CCCCNC(=O)N3CCc4[nH]c5ccccc5c4C3)CC2)cc(C(C)(C)C)c1 [Compound 97, N-(4-(4-(3,5-Di-tert-butylphenyl)piperazin-1-yl)butyl)-3,4-dihydro-1H-pyrido[4,3-b]indole-2(5H)-carboxamide]",2440 ± 175,245 ± 46.4,10
"Cc1ccc2[nH]c3c(c2c1)CN(C(=O)NCCCCN1CCN(c2cc(C(C)(C)C)nc(C)n2)CC1)CC3 [Compound 94, N-(4-(4-(6-(tert-Butyl)-2-methylpyrimidin-4-yl)piperazin-1-yl)butyl)-8-methyl-3,4-dihydro-1H-pyrido[4,3-b]indole-2(5H)-carboxamide]",5480 ± 1150,219 ± 23.8,25
"CC(C)(C)c1nc(N2CCN(CCCCNC(=O)N3CCN(c4cc(C(F)(F)F)nc(C(C)(C)C)n4)CC3)CC2)cc(C(F)(F)F)n1 [Compound 62, 4-(2-(tert-Butyl)-6-(trifluoromethyl)pyrimidin-4-yl)-N-(4-(4-(2-(tert-butyl)-6-(trifluoromethyl)pyrimidin-4-yl)piperazin-1-yl)butyl)piperazine-1-carboxamide]",1520 ± 344,106 ± 5.5,14
"CC(C)(C)c1nc(N2CCN(CCCCNC(=O)N3CCN(C4CCCCC4)CC3)CC2)cc(C(F)(F)F)n1 [Compound 69, N-(4-(4-(2-(tert-Butyl)-6-(trifluoromethyl)pyrimidin-4-yl)piperazin-1-yl)butyl)-4-cyclohexylpiperazine-1-carboxamide]",215 ± 54.1,29.8 ± 3.8,7
"Cc1cccc(N2CCN(C(=O)NCCCCN3CCN(c4cc(C(F)(F)F)nc(C(C)(C)C)n4)CC3)CC2)c1 [Compound 22, N-(4-(4-(2-(tert-Butyl)-6-(trifluoromethyl)pyrimidin-4-yl)piperazin-1-yl)butyl)-4-(m-tolyl)piperazine-1-carboxamide]",928 ± 231,24.7 ± 5.4,38
"CC(C)(C)c1nc(N2CCN(CCCCNC(=O)N3CCN(c4ccnc5ccccc45)CC3)CC2)cc(C(F)(F)F)n1 [Compound 34, N-(4-(4-(2-(tert-Butyl)-6-(trifluoromethyl)pyrimidin-4-yl)piperazin-1-yl)butyl)-4-(quinolin-4-yl)piperazine-1-carboxamide]",524 ± 42.2,12.7 ± 2.5,41
"Cc1nc(N2CCN(CCCCNC(=O)N3CCc4[nH]c5ccc(Cl)cc5c4C3)CC2)cc(C(C)(C)C)n1 [Compound 95, N-(4-(4-(6-(tert-Butyl)-2-methylpyrimidin-4-yl)piperazin-1-yl)butyl)-8-chloro-3,4-dihydro-1H-pyrido[4,3-b]indole-2(5H)-carboxamide]",5560 ± 1340,215 ± 45.5,26
"CC(C)(C)c1nc(N2CCN(CCCCNC(=O)C3CCN(c4ccc(C(F)(F)F)cn4)CC3)CC2)cc(C(F)(F)F)n1 [Compound 110, N-(4-(4-(2-(tert-Butyl)-6-(trifluoromethyl)pyrimidin-4-yl)piperazin-1-yl)butyl)-1-(5-(trifluoromethyl)pyridin-2-yl)piperidine-4-carboxamide]",1800 ± 257,167 ± 8.5,11
"O=C(NCCCCN1CCN(c2ccc3ccccc3n2)CC1)c1cn2cccnc2n1 [Compound 126, N-(4-(4-(Quinolin-2-yl)piperazin-1-yl)butyl)imidazo[1,2-a]pyrimidine-2-carboxamide]",1260 ± 142,161,8
"CC(C)(C)c1nc(N2CCN(CCCCNC(=O)N3CCN(c4ccc(Cl)cc4)CC3)CC2)cc(C(F)(F)F)n1 [Compound 57, N-(4-(4-(2-(tert-Butyl)-6-(trifluoromethyl)pyrimidin-4-yl)piperazin-1-yl)butyl)-4-(4-chlorophenyl)piperazine-1-carboxamide]",644 ± 6.6,35.5 ± 7.2,18
"CC(C)(C)c1cc(N2CCN(CCCCNC(=O)N3CCc4[nH]c5ccccc5c4C3)CC2)nc(C(C)(C)C)n1 [Compound 56, N-(4-(4-(2,6-Di-tert-butylpyrimidin-4-yl)piperazin-1-yl)butyl)-3,4-dihydro-1H-pyrido[4,3-b]indole-2(5H)-carboxamide]",308 ± 29.9,9.5 ± 1.7,33
"CC(C)(C)c1cc(N2CCN(CCCCNC(=O)c3cn4ccccc4n3)CC2)nc(C(C)(C)C)n1 [Compound 122, N-(4-(4-(2,6-Di-tert-butylpyrimidin-4-yl)piperazin-1-yl)butyl)imidazo[1,2-a]pyridine-2-carboxamide]",361,18.8 ± 3.5,19
"CC(C)(C)c1nc(N2CCN(CCCCNC(=O)N3CCCC(c4ccccc4)CC3)CC2)cc(C(F)(F)F)n1 (stereo not drawn) [Compound 82, N-(4-(4-(2-(tert-Butyl)-6-(trifluoromethyl)pyrimidin-4-yl)piperazin-1-yl)butyl)-4-phenylazepane-1-carboxamide]",668 ± 135,129 ± 21.9,5
